Laboratory results reported in ChEMBL document CHEMBL6127076, “Scaffold hopping-driven optimization for the identification of NLRP3 inhibitors as potential gout therapeutics” (Eur J Med Chem, 2024).
pIC50: −log10 of the molar value. Converted amounts (≈) assume the structure as drawn. Each block holds one compound with its values, some of them ahead of it. The source made the active and inactive calls.

Assays:
[1] = Inhibition of NLRP3 inflammasome pathway in human THP-1 cells assessed as inhibition of LPS/MSU-induced IL-1beta secretion
[2] = test system: HEK-293T; experiment: Cytotoxicity against human HEK293T cells assessed as cell viability at 50 uM measured after 24 hrs by CCK8 assay; assay type: toxicity, cell-based
[3] = Aqueous solubility of the compound in pH 7.4 PBS buffer; assay type: physicochemical
[4] = Plasma stability in human plasma assessed as compound remaining measured after 5 mins; assay type: ADME, cell-free; details: read-out: Stability
[5] = Plasma stability in human plasma assessed as compound remaining measured after 15 mins; assay type: ADME, cell-free; details: read-out: Stability
[6] = Plasma stability in human plasma assessed as compound remaining measured after 30 mins; assay type: ADME, cell-free; details: read-out: Stability
[7] = Plasma stability in human plasma assessed as compound remaining measured after 60 mins; assay type: ADME, cell-free; details: read-out: Stability
[8] = Plasma stability in human plasma assessed as compound remaining measured after 120 mins; assay type: ADME, cell-free; details: read-out: Stability
[9] = Plasma stability in human plasma assessed as half life; assay type: ADME, cell-free
[10] = Plasma stability in human plasma assessed as compound remaining measured immediately; assay type: ADME, cell-free; details: read-out: Stability
[11] = target: T1, Cytochrome P450 1A2 (Homo sapiens, UniProt P05177); experiment: Inhibition of CYP1A2 (unknown origin); assay type: ADME
T1 sequence (P05177 whole entry): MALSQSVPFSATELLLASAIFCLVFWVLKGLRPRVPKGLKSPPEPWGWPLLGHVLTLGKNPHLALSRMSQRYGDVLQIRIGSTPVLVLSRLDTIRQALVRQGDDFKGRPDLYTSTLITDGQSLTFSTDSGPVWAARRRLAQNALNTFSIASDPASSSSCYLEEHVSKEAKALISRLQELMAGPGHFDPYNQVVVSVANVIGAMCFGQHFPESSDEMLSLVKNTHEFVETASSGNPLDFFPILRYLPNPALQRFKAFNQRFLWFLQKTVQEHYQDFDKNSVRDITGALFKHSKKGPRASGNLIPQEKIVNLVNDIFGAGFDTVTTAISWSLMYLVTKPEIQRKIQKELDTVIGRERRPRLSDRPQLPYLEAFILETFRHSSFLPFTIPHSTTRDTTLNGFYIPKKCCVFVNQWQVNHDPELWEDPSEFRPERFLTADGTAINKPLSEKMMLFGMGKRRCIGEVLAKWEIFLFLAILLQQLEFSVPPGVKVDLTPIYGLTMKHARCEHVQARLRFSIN

[12] = target: Cytochrome P450 2C9 (Homo sapiens, UniProt P11712); experiment: Inhibition of CYP2C9 (unknown origin); assay type: ADME
Chain of Cytochrome P450 2C9 (P11712 whole entry): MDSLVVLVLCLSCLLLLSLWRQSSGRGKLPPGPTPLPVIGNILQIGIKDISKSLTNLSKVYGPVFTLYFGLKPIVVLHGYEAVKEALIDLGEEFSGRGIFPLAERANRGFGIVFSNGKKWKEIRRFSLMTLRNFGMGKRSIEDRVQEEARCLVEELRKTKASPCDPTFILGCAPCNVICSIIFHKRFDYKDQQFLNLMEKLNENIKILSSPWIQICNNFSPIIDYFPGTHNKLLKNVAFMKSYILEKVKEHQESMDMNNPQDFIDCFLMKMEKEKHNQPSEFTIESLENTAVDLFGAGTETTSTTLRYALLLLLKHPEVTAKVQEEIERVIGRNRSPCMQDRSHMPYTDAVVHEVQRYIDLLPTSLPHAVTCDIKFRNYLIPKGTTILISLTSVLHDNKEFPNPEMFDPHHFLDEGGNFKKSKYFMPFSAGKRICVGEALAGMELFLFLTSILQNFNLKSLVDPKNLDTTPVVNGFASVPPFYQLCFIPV

[13] = target: Cytochrome P450 2C19 (Homo sapiens, UniProt P33261); experiment: Inhibition of CYP2C19 (unknown origin); assay type: ADME
Chain of Cytochrome P450 2C19 (P33261 whole entry): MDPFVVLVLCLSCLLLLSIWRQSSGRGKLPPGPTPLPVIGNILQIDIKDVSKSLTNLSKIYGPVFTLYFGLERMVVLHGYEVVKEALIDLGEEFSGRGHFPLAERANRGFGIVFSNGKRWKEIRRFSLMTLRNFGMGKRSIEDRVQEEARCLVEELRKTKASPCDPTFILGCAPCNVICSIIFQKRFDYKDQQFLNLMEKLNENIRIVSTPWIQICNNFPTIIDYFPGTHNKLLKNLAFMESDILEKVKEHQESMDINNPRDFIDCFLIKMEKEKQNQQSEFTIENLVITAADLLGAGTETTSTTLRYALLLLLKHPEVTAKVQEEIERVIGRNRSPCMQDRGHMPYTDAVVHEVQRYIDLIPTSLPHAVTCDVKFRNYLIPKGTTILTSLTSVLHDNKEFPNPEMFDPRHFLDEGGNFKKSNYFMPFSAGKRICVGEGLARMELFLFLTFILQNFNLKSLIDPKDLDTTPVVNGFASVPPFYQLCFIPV

[14] = target: T2, Cytochrome P450 3A4 (Homo sapiens, UniProt P08684); experiment: Inhibition of CYP3A4 (unknown origin) using midazolam as substrate; assay type: ADME
T2 sequence (P08684 whole entry): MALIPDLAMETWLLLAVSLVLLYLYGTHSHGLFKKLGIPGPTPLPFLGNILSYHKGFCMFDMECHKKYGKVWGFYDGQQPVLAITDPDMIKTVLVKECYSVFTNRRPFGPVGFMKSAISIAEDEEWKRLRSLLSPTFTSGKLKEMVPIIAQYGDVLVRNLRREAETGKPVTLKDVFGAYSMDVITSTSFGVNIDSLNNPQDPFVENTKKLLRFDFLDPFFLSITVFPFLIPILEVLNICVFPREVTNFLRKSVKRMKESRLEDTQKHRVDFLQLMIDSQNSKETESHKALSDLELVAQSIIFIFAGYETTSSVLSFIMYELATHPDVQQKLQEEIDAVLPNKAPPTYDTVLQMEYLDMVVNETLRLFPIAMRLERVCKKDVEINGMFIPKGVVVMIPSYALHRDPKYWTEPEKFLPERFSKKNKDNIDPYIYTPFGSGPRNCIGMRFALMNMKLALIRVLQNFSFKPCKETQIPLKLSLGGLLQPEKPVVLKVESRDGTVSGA

[15] = target: T2, Cytochrome P450 3A4; experiment: Inhibition of CYP3A4 (unknown origin) using testosterone as substrate; assay type: ADME
[16] = target: Cytochrome P450 2D6 (Homo sapiens, UniProt P10635); experiment: Inhibition of CYP2D6 (unknown origin); assay type: ADME
Chain of Cytochrome P450 2D6 (P10635 whole entry): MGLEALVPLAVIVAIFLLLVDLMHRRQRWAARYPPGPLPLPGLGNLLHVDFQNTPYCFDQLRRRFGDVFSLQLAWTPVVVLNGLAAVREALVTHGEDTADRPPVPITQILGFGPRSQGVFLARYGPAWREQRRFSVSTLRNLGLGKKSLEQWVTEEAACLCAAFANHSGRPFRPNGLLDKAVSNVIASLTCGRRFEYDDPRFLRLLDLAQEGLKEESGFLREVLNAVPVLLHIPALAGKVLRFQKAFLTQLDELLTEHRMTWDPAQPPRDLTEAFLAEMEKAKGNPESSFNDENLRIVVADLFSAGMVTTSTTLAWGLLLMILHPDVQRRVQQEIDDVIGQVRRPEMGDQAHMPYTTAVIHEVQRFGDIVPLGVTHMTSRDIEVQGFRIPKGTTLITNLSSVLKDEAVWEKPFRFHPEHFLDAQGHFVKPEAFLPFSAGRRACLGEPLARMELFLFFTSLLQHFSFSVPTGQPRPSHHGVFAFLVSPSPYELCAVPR

[17] = test system: HEK-293T; experiment: Cytotoxicity against human HEK293T cells assessed as cell viability at 0.39 to 50 uM measured after 24 hrs by CCK8 assay; assay type: toxicity, cell-based; details: dose 0.39-50 µM
[18] = test system: THP-1-M; experiment: Effect on ROS generation in Nigericin-induced human THP-1-M cells assessed as effect on increase in ROS generation by MitoSOX staining based confocal microscopic analysis; assay type: functional, cell-based
[19] = test system: THP-1-M; experiment: Effect on mitochondrial damage in Nigericin-induced human THP-1-M cells by MitoTracker staining based confocal microscopic analysis; assay type: functional, cell-based
[20] = test system: BMDM; experiment: Effect on NLPR3 expression in Nigericin-induced in C57BL/6J mouse BMDM cells at 3 to 30 uM by immunoblotting analysis; assay type: functional, cell-based; details: dose 3-30 µM
[21] = test system: BMDM; experiment: Effect on pro-caspase 1 expression in Nigericin-induced in C57BL/6J mouse BMDM cells at 3 to 30 uM by immunoblotting analysis; assay type: functional, cell-based; details: dose 3-30 µM
[22] = test system: BMDM; experiment: Effect on pro-IL-1beta expression in Nigericin-induced in C57BL/6J mouse BMDM cells at 3 to 30 uM by immunoblotting analysis; assay type: functional, cell-based; details: dose 3-30 µM
[23] = test system: BMDM; experiment: Effect on ASC expression in Nigericin-induced in C57BL/6J mouse BMDM cells at 3 to 30 uM by immunoblotting analysis; assay type: functional, cell-based; details: dose 3-30 µM
[24] = test system: BMDM; experiment: Effect on NEK7 expression in Nigericin-induced in C57BL/6J mouse BMDM cells at 3 to 30 uM by immunoblotting analysis; assay type: functional, cell-based; details: dose 3-30 µM
[25] = test system: Mus musculus; experiment: Anti-inflammatory activity against MSU-induced peritonitis mouse model assessed as reduction in IL-1beta secretion in peritoneal cavity treated by gavage 30 mins before MSU induction measured after 6 hrs modeling by ELISA; assay type: functional, organism-based; details: dose 5-30 mg/kg, route po
[26] = test system: Mus musculus; experiment: Anti-inflammatory activity against MSU-induced peritonitis mouse model assessed as reduction in IL-1beta secretion in peritoneal cavity at 30 mg/kg, treated by gavage 30 mins before MSU induction measured after 6 hrs modeling by ELISA; assay type: functional, organism-based; details: route po
[27] = test system: Mus musculus; experiment: Anti-arthritis activity against MSU-induced arthritis mouse model assessed as decrease in von Frey pain threshold treated by gavage 30 mins before MSU induction measured for day 3 to day 7; assay type: functional, organism-based; details: dose 5-30 mg/kg, route po, time 3-7 day
[28] = test system: Mus musculus; experiment: Anti-arthritis activity against MSU-induced arthritis mouse model assessed as decrease in decrease in swelling in joint treated by gavage 30 mins before MSU induction measured for 7 days; assay type: functional, organism-based; details: dose 5-30 mg/kg, route po, time 7.0 day
[29] = test system: Mus musculus; experiment: Anti-inflammatory activity against MSU-induced peritonitis mouse model assessed as reduction in IL-1beta secretion in peritoneal cavity at 10 mg/kg, treated by gavage 30 mins before MSU induction measured after 6 hrs modeling by ELISA; assay type: functional, organism-based

Structure (SMILES): Cc1ccc(CN2C(=S)N(c3ccc(C#N)c(C(F)(F)F)c3)C(=O)C2(C)C)cc1C
pIC50 [1]: < 4.70

Structure (SMILES): COc1ccc(N2C(=O)C(C)(C)N(Cc3ccc(C(F)(F)F)cc3)C2=S)cc1
pIC50 [1]: 4.89

Structure (SMILES): COc1ccc(N2C(=O)C(C)(C)N(Cc3cc(C(F)(F)F)ccc3C(F)(F)F)C2=S)cc1
pIC50 [1]: < 4.70

Structure (SMILES): CC(C)[N+](C)(CCOC(=O)C1c2ccccc2Oc2ccccc21)C(C)C [PROPANTHELINE]
remaining at 5 min [4]: 88%
remaining at 0.25 h [5]: 58.5%
remaining at 0.5 h [6]: 37.4%
remaining at 1 h [7]: 10.7%
remaining at 2 h [8]: 2.91%
half-life [9]: 0.387 h

Structure (SMILES): CC(C)(O)c1coc(S(=O)(=O)NC(=O)Nc2c3c(cc4c2CCC4)CCC3)c1
Activity [29]: Active

Structure (SMILES): COc1ccccc1N1C(=O)C(C)(C)N(Cc2ccc(C)c(C)c2)C1=S
pIC50 [1]: < 4.70

Structure (SMILES): COc1ccc(N2C(=O)C(C)(C)N(Cc3ccccc3C(F)(F)F)C2=S)cc1
pIC50 [1]: 4.53

Structure (SMILES): CCCSc1ccc2nc(NC(=O)OC)[nH]c2c1 [ALBENDAZOLE]
solubility [3]: 1.65 µM (≈ 0.438 µg/mL)

Structure (SMILES): CC(C)NCC(O)COc1cccc2ccccc12 (stereo not given) [PROPRANOLOL]
solubility [3]: 91.2 µM (≈ 23.7 µg/mL)

Structure (SMILES): COc1ccc(N2C(=O)C(C)(C)N(Cc3cccc(C(F)(F)F)c3)C2=S)cc1
pIC50 [1]: < 4.70

Second part, led by results:

pIC50 [1]: < 4.70
Structure (SMILES): CC1(C)C(=O)N(c2cccnc2)C(=S)N1Cc1ccc(S(N)(=O)=O)c(F)c1

pIC50 [1]: 5.19
solubility [3]: 19.3 µM (≈ 8.95 µg/mL)
remaining at 5 min [4]: 96.7%
remaining at 0.25 h [5]: 89.8%
remaining at 0.5 h [6]: 98.2%
remaining at 1 h [7]: 100%
remaining at 2 h [8]: 82.5%
half-life [9]: 10 h
remaining at 0 min [10]: 100%
pIC50 [11]: < 4.00
pIC50 [12]: < 5.00
pIC50 [13]: < 5.00
pIC50 [14]: < 5.00
pIC50 [15]: < 5.00
pIC50 [16]: < 5.00
Structure (SMILES): CC(C)(C)c1ccc(N2C(=O)C(C)(C)N(Cc3ccc(S(N)(=O)=O)c(F)c3)C2=S)cc1
Activity [2]: Toxic

pIC50 [1]: < 4.70
Structure (SMILES): CC(C)(C)c1ccc(N2C(=O)C(C)(C)N(Cc3ccc(C#N)c(Cl)c3)C2=S)cc1

pIC50 [1]: 5.32
solubility [3]: 53.7 µM (≈ 25.5 µg/mL)
remaining at 5 min [4]: 100%
remaining at 0.25 h [5]: 99.5%
remaining at 0.5 h [6]: 104%
remaining at 1 h [7]: 103%
remaining at 2 h [8]: 96.9%
remaining at 0 min [10]: 100%
pIC50 [11]: < 4.00
pIC50 [12]: < 5.00
pIC50 [13]: < 5.00
pIC50 [14]: < 5.00
pIC50 [15]: < 5.00
pIC50 [16]: < 5.00
Structure (SMILES): CC1(C)C(=O)N(c2ccc(C(F)(F)F)cc2)C(=S)N1Cc1ccc(S(N)(=O)=O)c(F)c1
Activity [17]: Non-Toxic
Activity [18]: inactive
Activity [19]: inactive
Activity [20]: inactive
Activity [21]: inactive
Activity [22]: inactive
Activity [23]: inactive
Activity [24]: inactive
Activity [25]: Dose-Dependent Effect
Activity [26]: Active
Activity [27]: Dose-Dependent Effect
Activity [28]: Dose-Dependent Effect

pIC50 [1]: < 4.70
Structure (SMILES): CC(C)(C)c1ccc(N2C(=O)C(C)(C)N(Cc3ccc(C(=O)O)cc3)C2=S)cc1
